How the values were obtained:
[1] = in vivo; cited from earlier work
Gaucher disease mice = assay: Anakinra (IL-1Ra) treatment of CBE-induced Gaucher disease mice; type: in vivo
Protocol: Mice were injected i.p. with 50 mg/kg/day CBE or CBE+IL-1Ra (Anakinra, 75 mg/kg) from 8 days of age. Body weight (FIG. 7A) and life span (FIG. 7B) of mice treated with either CBE only or CBE+Anakinara (n=3).
Gba^flox/flox; mice were crossed with Gba^flox/+; Nestin-Cre mice to generate Gba^flox/flox; Nestin-Cre mice (Enquist, I. B. et al. 2007. Proc. Natl. Acad. Sci. U.S.A. 104, 17483-17488) and Gba^flox/+; Nestin-Cre mice, which served as healthy controls. Genotyping was performed by PCR using genomic DNA extracted from mouse tails or embryonic brains (Farfel-Becker, T. et al. 2009. Hum. Mol. Genet. 18, 1482-1488). Both male and female mice were used. The colony was maintained in the experimental animal center of the Weizmann Institute of Science. All animal experiments were approved by the Weizmann Institute Institutional Animal Care and Use Committee. Mice deficient in galactocerebrosidase (the Twitcher mouse) were used as a model of Krabbe disease (Suzuki. K. & Taniike, M. 1995. Res. Tech. 32, 204-214), mice deficient in the β-subunit of β-hexosaminidase A and B were used as a model of Sandhoff disease (Sango, K. et al. 1995. Nat. Genet. 11, 170-176). Brains from a mouse model of the GM1 gangliosidosis (Hahn, C. N. et al. 1997. Hum. Mol. Genet. 6, 205-211), defective in lysosomal β-galactosidase, and from Niemann-Pick disease Type C1 mice (Pentchev, P. G. et al. 1984. J. Biol. Chem. 259, 5784-5791), defective in the NPC1 gene, were also used. Mice deficient in TNFα (strain B6; 129S6-Tnftm1Gkl/J, The Jackson Laboratory) were provided by Dr. David Wallach (Weizmann Institute, Israel). C57BL/6J (The Jackson Laboratory) mice were injected daily intraperitoneally with 50 mg CBE/kg body weight/day (Kanfer, J. N. et al. 1975. Biochem. Biophys. Res. Commun. 67, 85-90) or with phosphate-buffered saline from 8 days of age.

Compound	crossing of the blood-brain barrier [1]	half-life [1] [h]	clinical course of Gaucher disease mice (Gaucher disease mice; 50 mg/kg/day CBE i.p. + IL-1Ra (Anakinra, 75 mg/kg) from 8 days of age, FIG. 7)	gain weight (body weight) (Gaucher disease mice; CBE-treated mice, 50 mg/kg/day CBE i.p. + Anakinra 75 mg/kg from 8 days of age, vs CBE only, n=3, FIG. 7A)	life-span (Gaucher disease mice; CBE-treated mice, 50 mg/kg/day CBE i.p. + Anakinra 75 mg/kg from 8 days of age, vs CBE only, n=3, FIG. 7B)
CN1C(=O)C(Cc2c[nH]c3ccccc23)NC1=S (centres unmarked) [Nec-1, necrostatin-1]	crosses the blood-brain barrier	~1			
Anakinra: a recombinant, non-glycosylated version of human IL-1 receptor antagonist, sold under the trade name KINERET (Amgen)			improves the clinical course	improves gain weight	improves
